“And” between values parts separate entries of the source, which are not always exact repeats. Equal entries are not always repeated. Inconclusive results and toxic doses are left out. Rule for the calls: active = survival T/C of 150% or more; inactive = T/C below 125% in these data.
Tested on: BDF1 mice, B16 melanoma ip, median survival T/C
Assay: NCI In Vivo Anticancer Drug Screen. Data for tumor model B16 Melanoma (intraperitoneal) in B6D2F1 (BDF1) mice
Settings: endpoint: median survival time, higher = longer survival
Method in brief: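 Vehicle-treated animals serve as the reference (C); treated animals (T) are scored for survival or tumor size after tumor transplantation.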

[1] = dose: 0.78 mg/kg/injection, schedule: Q01DX009 (ip), vehicle: Klucel (hydroxypropylcellulose) (HPC)
[2] = dose: 1.56 mg/kg/injection, schedule: Q01DX009 (ip), vehicle: Klucel (hydroxypropylcellulose) (HPC)
[3] = dose: 3.12 mg/kg/injection, schedule: Q01DX009 (ip), vehicle: Klucel (hydroxypropylcellulose) (HPC)
[4] = dose: 100.0 mg/kg/injection, schedule: Q04DX003 (ip), vehicle: Klucel (hydroxypropylcellulose) (HPC)
[5] = dose: 50.0 mg/kg/injection, schedule: Q01DX009 (ip), vehicle: Klucel (hydroxypropylcellulose) (HPC)
[6] = dose: 100.0 mg/kg/injection, schedule: Q01DX009 (ip), vehicle: Klucel (hydroxypropylcellulose) (HPC)
[7] = dose: 200.0 mg/kg/injection, schedule: Q01DX009 (ip), vehicle: Klucel (hydroxypropylcellulose) (HPC)
[8] = dose: 12.5 mg/kg/injection, schedule: Q01DX009 (ip), vehicle: saline with Tween-80
[9] = dose: 25.0 mg/kg/injection, schedule: Q01DX009 (ip), vehicle: saline with Tween-80
[10] = dose: 50.0 mg/kg/injection, schedule: Q01DX009 (ip), vehicle: saline with Tween-80
[11] = dose: 100.0 mg/kg/injection, schedule: Q01DX009 (ip), vehicle: saline with Tween-80
[12] = dose: 12.5 mg/kg/injection, schedule: Q01DX009 (ip), vehicle: Klucel (hydroxypropylcellulose) (HPC)
[13] = dose: 200.0 mg/kg/injection, schedule: Q04DX003 (ip), vehicle: Klucel (hydroxypropylcellulose) (HPC)
[14] = dose: 400.0 mg/kg/injection, schedule: Q04DX003 (ip), vehicle: Klucel (hydroxypropylcellulose) (HPC)
[15] = dose: 200.0 mg/kg/injection, schedule: Q01DX009 (ip), vehicle: saline with Tween-80
[16] = dose: 25.0 mg/kg/injection, schedule: Q04DX003 (ip), vehicle: saline with Tween-80
[17] = dose: 400.0 mg/kg/injection, schedule: Q01DX009 (ip), vehicle: Klucel (hydroxypropylcellulose) (HPC)

Measured: T/C

COC(=O)C1C2CC3c4[nH]c5cc(OC)ccc5c4CCN3CC2CC(OC2CCCCO2)C1OC (stereo unspecified)
inactive: dose: 0.19 mg/kg/injection, schedule: Q01DX009 (ip), vehicle: Klucel (hydroxypropylcellulose) (HPC) 112 % of control | dose: 0.39 mg/kg/injection, schedule: Q01DX009 (ip), vehicle: Klucel (hydroxypropylcellulose) (HPC) 104 % of control | [1] 103 % of control | dose: 0.78 mg/kg/injection, schedule: Q04DX003 (ip), vehicle: Klucel (hydroxypropylcellulose) (HPC) 91 % of control | [2] 101 % of control | dose: 1.56 mg/kg/injection, schedule: Q04DX003 (ip), vehicle: Klucel (hydroxypropylcellulose) (HPC) 90 % of control | [3] 111 % of control | dose: 3.12 mg/kg/injection, schedule: Q04DX003 (ip), vehicle: Klucel (hydroxypropylcellulose) (HPC) 96 % of control and 122 % of control | dose: 6.25 mg/kg/injection, schedule: Q04DX003 (ip), vehicle: Klucel (hydroxypropylcellulose) (HPC) 98 % of control | dose: 12.5 mg/kg/injection, schedule: Q04DX003 (ip), vehicle: Klucel (hydroxypropylcellulose) (HPC) 95 % of control and 111 % of control | dose: 25.0 mg/kg/injection, schedule: Q04DX003 (ip), vehicle: Klucel (hydroxypropylcellulose) (HPC) 113 % of control | dose: 50.0 mg/kg/injection, schedule: Q04DX003 (ip), vehicle: Klucel (hydroxypropylcellulose) (HPC) 111 % of control | [4] 100 % of control

CCOc1ccc(N2CSC(=S)N(c3ccc(OCC)cc3)C2)cc1
inactive: [5] 99 % of control | [6] 94 % of control | [7] 88 % of control

COc1cc(C(C)(C)C)cc(OC)c1C(O)(c1c(OC)cc(C(C)(C)C)cc1OC)c1c(OC)cc(C(C)(C)C)cc1OC
inactive: dose: 6.25 mg/kg/injection, schedule: Q01DX009 (ip), vehicle: saline with Tween-80 102 % of control | [8] 116 % of control | [9] 109 % of control | [10] 121 % of control | [11] 109 % of control

O=S(=O)(c1ccc(NC(=S)N/N=C/c2ccccc2O)cc1)N1CCCCC1
inactive: dose: 25.0 mg/kg/injection, schedule: Q01DX009 (ip), vehicle: olive oil, sesame oil, peanut oil 87 % of control | dose: 50.0 mg/kg/injection, schedule: Q01DX009 (ip), vehicle: olive oil, sesame oil, peanut oil 87 % of control

NN(CC1=COc2ccccc2O1)Cc1ccccc1
inactive: [12] 94 % of control | dose: 25.0 mg/kg/injection, schedule: Q01DX009 (ip), vehicle: Klucel (hydroxypropylcellulose) (HPC) 94 % of control | [5] 91 % of control | [6] 105 % of control | [13] 91 % of control

CCOC(=O)NC(C)(C)CN(CCCO)C(=O)OCC
inactive: [4] 100 % of control | [13] 100 % of control | [14] 97 % of control

Cc1cc(Cl)ccc1NC(=O)Nc1ccccc1Cl
inactive: dose: 18.8 mg/kg/injection, schedule: Q01DX009 (ip), vehicle: Klucel (hydroxypropylcellulose) (HPC) 104 % of control | dose: 37.5 mg/kg/injection, schedule: Q01DX009 (ip), vehicle: Klucel (hydroxypropylcellulose) (HPC) 91 % of control | dose: 75.0 mg/kg/injection, schedule: Q01DX009 (ip), vehicle: Klucel (hydroxypropylcellulose) (HPC) 94 % of control

O=C(O)c1cc(-c2ccc(Cl)cc2)nc2c(-c3ccccc3)cccc12
inactive: [8] 87 % of control | [9] 105 % of control | [10] 87 % of control and 94 % of control | [11] 86 % of control | [15] 87 % of control

CS(=O)(=O)c1cnc2ccccc2n1
inactive: [9] 94 % of control | [10] 86 % of control

CNCCOc1ccc(Cl)cc1
inactive: [9] 103 % of control | [10] 98 % of control | [11] 101 % of control

NC(=O)Oc1ccc(Cc2ccccc2)cc1
inactive: [4] 95 % of control | [13] 91 % of control | [14] 97 % of control

CC1(C)N=C(N)N=C(N)N1c1cccc(Cl)c1
inactive: dose: 5.0 mg/kg/injection, schedule: Q01DX009 (ip), vehicle: saline 115 % of control | dose: 10.0 mg/kg/injection, schedule: Q01DX009 (ip), vehicle: saline 115 % of control | dose: 10.0 mg/kg/injection, schedule: Q04DX003 (ip), vehicle: saline 118 % of control | dose: 20.0 mg/kg/injection, schedule: Q01DX009 (ip), vehicle: saline 120 % of control | dose: 20.0 mg/kg/injection, schedule: Q04DX003 (ip), vehicle: saline 117 % of control | dose: 40.0 mg/kg/injection, schedule: Q01DX009 (ip), vehicle: saline 120 % of control

C=CCNC(=O)/C=C/C(=O)NCC=C
inactive: [16] 123 % of control | dose: 100.0 mg/kg/injection, schedule: Q04DX003 (ip), vehicle: saline with Tween-80 121 % of control

COc1c(I)c2c(c(OC)c1OC)-c1ccc(OC)c(=O)cc1C(NC(C)=O)CC2 (stereo unspecified)
inactive: [1] 104 % of control | [2] 104 % of control and 124 % of control | [3] 112 % of control | dose: 6.25 mg/kg/injection, schedule: Q01DX009 (ip), vehicle: Klucel (hydroxypropylcellulose) (HPC) 121 % of control | [12] 112 % of control

COc1ccc(/C=C/c2nc3ccccc3nc2/C=C/c2ccc(OC)c(OC)c2)cc1OC
inactive: dose: 6.25 mg/kg/injection, schedule: Q01DX009 (ip), vehicle: carboxymethylcellulose (CMC) 99 % of control | dose: 12.5 mg/kg/injection, schedule: Q01DX009 (ip), vehicle: carboxymethylcellulose (CMC) 92 % of control | dose: 25.0 mg/kg/injection, schedule: Q01DX009 (ip), vehicle: carboxymethylcellulose (CMC) 89 % of control

COC(=O)C(=O)[C@@H](O)[C@H](O)[C@@H](O)CO
inactive: [4] 94 % of control | [13] 94 % of control | [14] 100 % of control

COc1ccc(NC(=O)Nc2cc(C(F)(F)F)ccc2Cl)cc1
inactive: dose: 8.0 mg/kg/injection, schedule: Q01DX009 (ip), vehicle: saline with Tween-80 100 % of control | dose: 12.0 mg/kg/injection, schedule: Q01DX009 (ip), vehicle: saline with Tween-80 100 % of control | dose: 18.0 mg/kg/injection, schedule: Q01DX009 (ip), vehicle: saline with Tween-80 104 % of control
active: [8] 215 % of control | [9] 194 % of control | [10] 218 % of control

Nc1cc(N)cc(C(=O)c2ccccc2)c1
inactive: [11] 93 % of control | [15] 97 % of control | dose: 400.0 mg/kg/injection, schedule: Q01DX009 (ip), vehicle: saline with Tween-80 93 % of control

C(/C=C/c1ccccc1)=Nc1ccc2c(c1)Cc1ccccc1-2
inactive: [6] 96 % of control | [7] 90 % of control | [17] 87 % of control

CN(C)/C=C/C(=O)c1ccccc1[N+](=O)[O-]
inactive: [6] 115 % of control | [4] 95 % of control | [7] 100 % of control | [13] 92 % of control | [17] 93 % of control | [14] 88 % of control

C[C@H]1C/C=C/[C@H]2[C@@H]3O[C@]3(C)[C@@H](C)[C@H]3[C@H](Cc4ccccc4)NC(=O)[C@]32OC(=O)O/C=C/[C@@](C)(O)C1=O
inactive: dose: 1.25 mg/kg/injection, schedule: Q01DX009 (ip), vehicle: Klucel (hydroxypropylcellulose) (HPC) 86 % of control | dose: 2.5 mg/kg/injection, schedule: Q01DX009 (ip), vehicle: Klucel (hydroxypropylcellulose) (HPC) 92 % of control | dose: 10.0 mg/kg/injection, schedule: Q01DX009 (ip), vehicle: Klucel (hydroxypropylcellulose) (HPC) 89 % of control

S=C(Cc1ccccc1)N1CCN(c2ccc(Cl)cc2)CC1
inactive: [10] 100 % of control | [11] 99 % of control | [15] 93 % of control

C=CC1CC[N-]CC1.C=CC1CC[N-]CC1.C=CC1CC[N-]CC1.[Cl][Cr]([Cl])[Cl]
inactive: dose: 8.0 mg/kg/injection, schedule: Q04DX003 (ip), vehicle: saline with Tween-80 97 % of control | dose: 12.0 mg/kg/injection, schedule: Q04DX003 (ip), vehicle: saline with Tween-80 102 % of control | [8] 95 % of control | dose: 18.0 mg/kg/injection, schedule: Q04DX003 (ip), vehicle: saline with Tween-80 105 % of control | [9] 95 % of control | [16] 121 % of control | [10] 102 % of control | dose: 50.0 mg/kg/injection, schedule: Q04DX003 (ip), vehicle: saline with Tween-80 113 % of control

CN(C)CCCC#N
inactive: dose: 25.0 mg/kg/injection, schedule: Q01DX009 (ip), vehicle: saline 100 % of control | dose: 50.0 mg/kg/injection, schedule: Q01DX009 (ip), vehicle: saline 100 % of control | dose: 100.0 mg/kg/injection, schedule: Q01DX009 (ip), vehicle: saline 100 % of control

— PubChem BioAssay AID192 (DTP/NCI, 2004)
